Source: US8703712B2, “Targeting cancer stem cells with DR5 agonists” (The UAB Research Foundation, priority 2011, dated 2014)

B1: TRAIL: Super Killer TRAIL™ purchased from Alexis Biochemicals; death receptor ligand (protein, UniProt P50591 39-281, looked up)
extracellular domain: TNELKQMQDKYSKSGIACFLKEDDSYWDPNDEESMNSPCWQVKWQLRQLVRKMILRTSEETISTVQEKQQNISPLVRERGPQRVAAHITGTRGRSNTLSSPNSKNEKALGRKINSWESSRSGHSFLSNLHLRNGELVIHEKGFYYIYSQTYFRFQEEIKENTKNDKQMVQYIYKYTSYPDPILLMKSARNSCWSKDAEYGLYSIYQGGIFELKENDRIFVSVTNEHLIDMDHEASFFGAFLVG
modifications: extracellular domain Super Killer TRAIL engineered soluble form
notes: Super Killer TRAIL™ purchased from Alexis Biochemicals; death receptor ligand

Assays:
2LMP ALDH+ cells [1] = assay: Annexin V-propidium iodide apoptosis assay (flow cytometry); type: cell-based, human; settings: 5 μM MRK003
Protocol: 2LMP ALDH^+ cells were sorted by flow cytometry and treated with MRK003 GSI (or DMSO) for 24 hours followed by TRA-8 (or media) for an additional 24 hours before measuring ATP levels. […] Similar results were found in studies using CSC-enriched cell populations derived from sphere cultures. The results were confirmed using annexin V-propidium iodide assays and flow cytometry to measure apoptosis.

[2] = tested on: 2LMP and SUM159 ALDH+ tumorsphere cells; assay: Secondary tumorsphere formation; type: cell-based, human; settings: 2LMP and SUM159 sphere cells; TRAIL and 2E12 at concentrations equimolar to TRA-8
Protocol: Bars are normalized relative to untreated control and represent quadruplicate runs. Error bars denote standard deviation (SD).
(§1) • Drugs and Antibodies. Adriamycin and Taxol were purchased from Sigma Aldrich Chemical Co. (St. Louis, Mo.) and prepared as 10 mM stock solutions in distilled H2O or DMSO, respectively. Purified TRA-8 (IgG1) mAb was prepared as described previously (Ichikawa et al., Nat. Med. 7:954-60 (2001) and WO01/83560). Isotype-specific IgG1 control antibody was obtained from Southern Biotechnology Associates (Birmingham, Ala.). Anti-DR4 mAb 2E12 (IgG1, k) was described previously (WO03/37913). Super Killer TRAIL™ was purchased from Alexis Biochemicals (Plymouth Meeting, Pa.). Conjugated antibodies APC mouse anti-human CD44, PE-Cy7 rat anti-mouse CD44, and corresponding isotype control antibodies were purchased from BD Pharmingen (San Jose, Calif.). ALDEFLUOR® kit including diethylaminobenzaldehyde (DEAB) negative control was obtained from StemCell Technologies (Durham, N.C.). Cleaved caspase-8 rabbit mAb and cleaved caspase-3 rabbit mAb were purchased from Cell Signaling (Billerica, Mass.). Secondary antibodies, Alexa tluor 405 goat anti-rabbit IgG and Alexa fluor 647 goat anti-mouse IgG1 were purchased from Invitrogen (Carlsbad, Calif.). • Cells and Cell Culture. The 2LMP subclone of the human breast cancer cell line MDA-MB-231 was maintained in improved MEM supplemented with 10% FBS (Hyclone; Logan, Utah). […] BCSC markers were analyzed on attached bulk cell populations. […] Samples were sorted on a Becton-Dickinson-FACSAriaII™ or analyzed on Becton-Dickinson-LSRII™ flow cytometer (Chicago, Ill.). Data were evaluated using FlowJo software (FlowJo; Ashland, Oreg.). • DR5 Expression and Functional Caspase Activation. […] Samples were analyzed by flow cytometry for DR5 expression on the ALDH^+/CD44^+/CD24^− subpopulation. […]

2LMP ALDH+ cells [3] = assay: Ex vivo treatment of sorted BCSC and tumor implantation; type: in vivo, NOD/SCID mice; settings: cells treated ex vivo with 500 nM Adriamycin for 3 hours, 4×10^4 cells into mammary fat pad; by day 51
Protocol: (§2) FIGS. 14A and 14B are graphs showing ex vivo treatment of sorted BCSCs inhibited tumorigenesis and progression in NOD/SCID mice. The graphs represent average tumor size (product of two diameters).
as §1, with “Calif.).” for “Calif.). ALDEFLUOR® kit including diethylaminobenzaldehyde (DEAB) negative control was obtained from StemCell Technologies (Durham, N.C.). Cleaved caspase-8 rabbit mAb and cleaved caspase-3 rabbit mAb were purchased from Cell Signaling (Billerica, Mass.). Secondary antibodies, Alexa tluor 405 goat anti-rabbit IgG and Alexa fluor 647 goat anti-mouse IgG1 were purchased from Invitrogen (Carlsbad, Calif.). • Cells and Cell Culture. The 2LMP subclone of the human breast cancer cell line MDA-MB-231 was maintained in improved MEM supplemented with 10% FBS (Hyclone; Logan, Utah).”

SUM159 ALDH+ cells = assay: as above; type: in vivo, NOD/SCID mice; settings: cells treated ex vivo with 500 nM Adriamycin for 3 hours, implanted into mammary fat pad
Protocol: as §2
as §1, with “Calif.).” for “Calif.). ALDEFLUOR® kit including diethylaminobenzaldehyde (DEAB) negative control was obtained from StemCell Technologies (Durham, N.C.). Cleaved caspase-8 rabbit mAb and cleaved caspase-3 rabbit mAb were purchased from Cell Signaling (Billerica, Mass.). Secondary antibodies, Alexa tluor 405 goat anti-rabbit IgG and Alexa fluor 647 goat anti-mouse IgG1 were purchased from Invitrogen (Carlsbad, Calif.). • Cells and Cell Culture. The 2LMP subclone of the human breast cancer cell line MDA-MB-231 was maintained in improved MEM supplemented with 10% FBS (Hyclone; Logan, Utah).”

| Molecule | annexin-V-positive (2LMP ALDH+ cells [1]) [%] | inhibition of secondary tumorsphere formation (in words) [2] | mice that developed tumors (2LMP ALDH+ cells [3]) | mice that developed tumors (SUM159 ALDH+ cells) |
| --- | --- | --- | --- | --- |
| O=S1(=O)N[C@@]2(CN1CC(F)(F)F)[C@@H]1CC[C@H]2Cc2ccc(/C=C/CN3CCC(C(F)(F)F)CC3)cc2C1 [MRK003] | 36 |  |  |  |
| COc1cccc2c1C(=O)c1c(O)c3c(c(O)c1C2=O)C[C@@](O)(C(=O)CO)C[C@@H]3O[C@H]1C[C@H](N)[C@H](O)[C@H](C)O1 [Adriamycin] |  | did not completely inhibit | Five out of five | zero out of five |
| CC(=O)O[C@H]1C(=O)[C@@]2(C)[C@H]([C@H](OC(=O)c3ccccc3)[C@]3(O)C[C@H](OC(=O)[C@H](O)[C@@H](NC(=O)c4ccccc4)c4ccccc4)C(C)=C1C3(C)C)[C@]1(OC(C)=O)CO[C@@H]1C[C@@H]2O [Taxol] |  | did not completely inhibit |  |  |
| B1 |  | only partially inhibitory |  |  |
